Target: T1, Hepsin (Homo sapiens, UniProt P05981)
T1 construct: gene HPN; Extracellular part of human Hepsin (amino acids 45-417), SRCR and trypsin-like serine protease domains
Assay: chromogenic peptide (pyroGlu-Pro-Arg-pNA) protease assay with purified recombinant Hepsin; also pro-HGF cleavage
Type: biochemical

T1 sequence (P05981 45-162): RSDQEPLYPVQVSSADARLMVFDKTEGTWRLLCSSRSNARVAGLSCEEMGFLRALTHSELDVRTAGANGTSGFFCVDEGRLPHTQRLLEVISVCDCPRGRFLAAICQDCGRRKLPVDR
T1 sequence (P05981 163-417): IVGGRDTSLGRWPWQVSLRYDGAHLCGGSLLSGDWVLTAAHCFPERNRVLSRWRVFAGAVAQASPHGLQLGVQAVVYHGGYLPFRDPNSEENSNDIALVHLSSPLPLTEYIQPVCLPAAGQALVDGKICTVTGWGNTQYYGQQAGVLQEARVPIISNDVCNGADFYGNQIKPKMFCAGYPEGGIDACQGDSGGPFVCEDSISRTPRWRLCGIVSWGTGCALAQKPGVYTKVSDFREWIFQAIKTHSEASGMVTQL

IC50: 330 nM
Structure (SMILES): Brc1ccc(C2Nc3cccc4cccc(c34)N2)cc1 [HepIn-13]
